Laboratory results taken from US9125913B2, “Bcl-2-selective apoptosis-inducing agents for the treatment of cancer and immune diseases” (AbbVie Inc., priority 2008, dated 2015).

System: GST-Bcl-2
Test: TR-FRET binding assay, Bcl-2
Settings: TR-FRET Ki values
Summary of the method: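 Ki values come from Wang's competitive-binding equation applied to TR-FRET signal (excitation 340/35 nm; emission 520/525 nm F-Bak peptide, 495/510 nm Tb antibody). Protein, probe and antibody incubated with compound 3 h at room temperature; dilution series began at 50 μM as 2× stock in 10% DMSO.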

Structure (SMILES)	Binding selectivity ratio (Bcl-XL Ki/Bcl-2 Ki)
Cn1ncc(-c2ccc(Cl)cc2)c1CN1CCN(c2ccc(C(=O)NS(=O)(=O)c3ccc(NCC4CCOCC4)c([N+](=O)[O-])c3)c(Oc3ccc4[nH]ccc4c3)c2)CC1 [EXAMPLE 285, 4-(4-{[4-(4-chlorophenyl)-1-methyl-1H-pyrazol-5-yl]methyl}piperazin-1-yl)-2-(1H-indol-5-yloxy)-N-({3-nitro-4-[(tetrahydro-2H-pyran-4-ylmethyl)amino]phenyl}sulfonyl)benzamide]	>94.4
CC1(C)CCC(CN2CCN(c3ccc(C(=O)NS(=O)(=O)c4cnc(NC5CCN(C6CC6)CC5)c(Cl)c4)c(Oc4cccc5[nH]ncc45)c3)CC2)=C(c2ccc(Cl)cc2)C1 [EXAMPLE 448, N-({5-chloro-6-[(1-cyclopropylpiperidin-4-yl)amino]pyridin-3-yl}sulfonyl)-4-(4-{[2-(4-chlorophenyl)-4,4-dimethylcyclohex-1-en-1-yl]methyl}piperazin-1-yl)-2-(1H-indazol-4-yloxy)benzamide]	3119
CC1(C)CCC(CN2CCN(c3ccc(C(=O)NS(=O)(=O)c4ccc(OC[C@H]5COCCO5)c([N+](=O)[O-])c4)c(Oc4ccc5[nH]ccc5c4)c3)CC2)=C(c2ccc(Cl)cc2)C1 [EXAMPLE 346, 4-(4-{[2-(4-chlorophenyl)-4,4-dimethylcyclohex-1-en-1-yl]methyl}piperazin-1-yl)-N-({4-[(2R)-1,4-dioxan-2-ylmethoxy]-3-nitrophenyl}sulfonyl)-2-(1H-indol-5-yloxy)benzamide]	11405.2
O=C(NS(=O)(=O)c1ccc(NC2CCN(C3CCOCC3)CC2)c([N+](=O)[O-])c1)c1ccc(N2CCN(Cc3ccc(C(F)(F)F)cc3-c3ccc(Cl)cc3)CC2)cc1Oc1ccc2[nH]ccc2c1 [EXAMPLE 358, 4-(4-{[4′-chloro-5-(trifluoromethyl)-1,1′-biphenyl-2-yl]methyl}piperazin-1-yl)-2-(1H-indol-5-yloxy)-N-({3-nitro-4-[(1-tetrahydro-2H-pyran-4-ylpiperidin-4-yl)amino]phenyl}sulfonyl)benzamide]	>121.8
CC1(C)CCC(CN2CCN(c3ccc(C(=O)NS(=O)(=O)c4ccc(NC5CCOCC5)c([N+](=O)[O-])c4)c(Oc4ccc5[nH]ccc5c4)c3)CC2)=C(c2ccc(Cl)cc2)C1 [EXAMPLE 263, 4-(4-{[2-(4-chlorophenyl)-4,4-dimethylcyclohex-1-en-1-yl]methyl}piperazin-1-yl)-2-(1H-indol-5-yloxy)-N-{[3-nitro-4-(tetrahydro-2H-pyran-4-ylamino)phenyl]sulfonyl}benzamide]	>2090.0
CC(=O)N1CCC(Nc2ccc(S(=O)(=O)NC(=O)c3ccc(N4CCN(CC5=C(c6ccc(Cl)cc6)CC(C)(C)CC5)CC4)cc3Oc3ccc4[nH]ccc4c3)cc2[N+](=O)[O-])CC1 [EXAMPLE 334, N-({4-[(1-acetylpiperidin-4-yl)amino]-3-nitrophenyl}sulfonyl)-4-(4-{[2-(4-chlorophenyl)-4,4-dimethylcyclohex-1-en-1-yl]methyl}piperazin-1-yl)-2-(1H-indol-5-yloxy)benzamide]	>3697.5
CN(C)C1(CNc2ccc(S(=O)(=O)NC(=O)c3ccc(N4CCN(CC5=C(c6ccc(Cl)cc6)CC(C)(C)CC5)CC4)cc3Oc3ccc4[nH]ccc4c3)cc2[N+](=O)[O-])CCOCC1 [EXAMPLE 207, 4-(4-{[2-(4-chlorophenyl)-4,4-dimethylcyclohex-1-en-1-yl]methyl}piperazin-1-yl)-N-{[4-({[4-(dimethylamino)tetrahydro-2H-pyran-4-yl]methyl}amino)-3-nitrophenyl]sulfonyl}-2-(1H-indol-5-yloxy)benzamide]	>3021.3
CC1(C)CCC(CN2CCN(c3ccc(C(=O)NS(=O)(=O)c4ccc(NCC(F)(F)F)c([N+](=O)[O-])c4)c(Oc4ccc5[nH]ccc5c4)c3)CC2)=C(c2ccc(Cl)cc2)C1 [EXAMPLE 344, 4-(4-{[2-(4-chlorophenyl)-4,4-dimethylcyclohex-1-en-1-yl]methyl}piperazin-1-yl)-2-(1H-indol-5-yloxy)-N-({3-nitro-4-[(2,2,2-trifluoroethyl)amino]phenyl}sulfonyl)benzamide]	1576.9
CC1(C)CCC(CN2CCN(c3ccc(C(=O)NS(=O)(=O)c4ccc(NCCN5CCOCC5)c(S(=O)(=O)C(F)(F)F)c4)c(Oc4ccc5[nH]ccc5c4)c3)CC2)=C(c2ccc(Cl)cc2)C1 [EXAMPLE 351, 4-(4-{[2-(4-chlorophenyl)-4,4-dimethylcyclohex-1-en-1-yl]methyl}piperazin-1-yl)-2-(1H-indol-5-yloxy)-N-({4-[(2-morpholin-4-ylethyl)amino]-3-[(trifluoromethyl)sulfonyl]phenyl}sulfonyl)benzamide]	>418.7
O=C(NS(=O)(=O)c1ccc(NCC2CCOCC2)c([N+](=O)[O-])c1)c1ccc(N2CCN(Cc3cc(OCCN4CCOCC4)ccc3-c3ccc(Cl)cc3)CC2)cc1Oc1ccc2[nH]ccc2c1 [Example 127, 4-(4-{[4′-chloro-4-(2-morpholin-4-ylethoxy)-1,1′-biphenyl-2-yl]methyl}piperazin-1-yl)-2-(1H-indol-5-yloxy)-N-({3-nitro-4-[(tetrahydro-2H-pyran-4-ylmethyl)amino]phenyl}sulfonyl)benzamide]	>1437.9
O=C(NS(=O)(=O)c1ccc(NCCc2ccncc2)c([N+](=O)[O-])c1)c1ccc(N2CCN(Cc3ccccc3-c3ccc(Cl)cc3)CC2)cc1Oc1ccccc1 [Example 169, 4-{4-[(4′-chloro-1,1′-biphenyl-2-yl)methyl]piperazin-1-yl}-N-({3-nitro-4-[(2-pyridin-4-ylethyl)amino]phenyl}sulfonyl)-2-phenoxybenzamide]	91.4
CC1(C)CCC(CN2CCN(c3ccc(C(=O)NS(=O)(=O)c4ccc(OCC5COCCO5)c([N+](=O)[O-])c4)c(Oc4ccc5[nH]ccc5c4)c3)CC2)=C(c2ccc(Cl)cc2)C1 (stereo not shown) [EXAMPLE 297, 4-(4-{[2-(4-chlorophenyl)-4,4-dimethylcyclohex-1-en-1-yl]methyl}piperazin-1-yl)-N-{[4-(1,4-dioxan-2-ylmethoxy)-3-nitrophenyl]sulfonyl}-2-(1H-indol-5-yloxy)benzamide]	2209.5
CN1CCN(CCNc2ccc(S(=O)(=O)NC(=O)c3ccc(N4CCN(CC5=C(c6ccc(Cl)cc6)CC(C)(C)CC5)CC4)cc3Oc3ccc4[nH]ccc4c3)cc2[N+](=O)[O-])CC1 [Example 95, 4-(4-{[2-(4-chlorophenyl)-4,4-dimethylcyclohex-1-en-1-yl]methyl}piperazin-1-yl)-2-(1H-indol-5-yloxy)-N-[(4-{[2-(4-methylpiperazin-1-yl)ethyl]amino}-3-nitrophenyl)sulfonyl]benzamide]	261.7
O=C(NS(=O)(=O)c1ccc(NCC2CCOCC2)c([N+](=O)[O-])c1)c1ccc(N2CCN(CC3=C(c4ccc(Cl)cc4)CCC(N4CCCC4)C3)CC2)cc1Oc1ccc2[nH]ccc2c1 (stereo not shown) [EXAMPLE 272, 4-(4-{[2-(4-chlorophenyl)-5-pyrrolidin-1-ylcyclohex-1-en-1-yl]methyl}piperazin-1-yl)-2-(1H-indol-5-yloxy)-N-({3-nitro-4-[(tetrahydro-2H-pyran-4-ylmethyl)amino]phenyl}sulfonyl)benzamide]	>58011.8
CC1(C)CCC(CN2CCN(c3ccc(C(=O)NS(=O)(=O)c4ccc(OCC#CCN5CCOCC5)c([N+](=O)[O-])c4)c(Oc4ccc5[nH]ccc5c4)c3)CC2)=C(c2ccc(Cl)cc2)C1 [EXAMPLE 390, 4-(4-{[2-(4-chlorophenyl)-4,4-dimethylcyclohex-1-en-1-yl]methyl}piperazin-1-yl)-2-(1H-indol-5-yloxy)-N-({4-[(4-morpholin-4-ylbut-2-ynyl)oxy]-3-nitrophenyl}sulfonyl)benzamide]	339.6
CO[C@H]1CC[C@H](CNc2ccc(S(=O)(=O)NC(=O)c3ccc(N4CCN(CC5=C(c6ccc(Cl)cc6)CC(C)(C)CC5)CC4)cc3Oc3cccc4[nH]ncc34)cc2[N+](=O)[O-])CC1 [EXAMPLE 446, Trans-4-(4-{[2-(4-chlorophenyl)-4,4-dimethylcyclohex-1-en-1-yl]methyl}piperazin-1-yl)-2-(1H-indazol-4-yloxy)-N-[(4-{[(4-methoxycyclohexyl)methyl]amino}-3-nitrophenyl)sulfonyl]benzamide]	508.4
CC1(C)CCC(CN2CCN(c3ccc(C(=O)NS(=O)(=O)c4cnc(OC[C@@H]5CCN(CC(F)F)C5)c(Cl)c4)c(Oc4cccc5[nH]ncc45)c3)CC2)=C(c2ccc(Cl)cc2)C1 [EXAMPLE 445, N-[(5-chloro-6-{[(3R)-1-(2,2-difluoroethyl)pyrrolidin-3-yl]methoxy}pyridin-3-yl)sulfonyl]-4-(4-{[2-(4-chlorophenyl)-4,4-dimethylcyclohex-1-en-1-yl]methyl}piperazin-1-yl)-2-(1H-indazol-4-yloxy)benzamide]	484.2
CN(C)CCNc1ccc(S(=O)(=O)NC(=O)c2ccc(N3CCN(Cc4ccccc4-c4ccc(Cl)cc4)CC3)cc2Oc2ccccc2)cc1[N+](=O)[O-] [Example 153, 4-{4-[(4′-chloro-1,1′-biphenyl-2-yl)methyl]piperazin-1-yl}-N-[(4-{[2-(dimethylamino)ethyl]amino}-3-nitrophenyl)sulfonyl]-2-phenoxybenzamide]	351
CC1(C)CCC(CN2CCN(c3ccc(C(=O)NS(=O)(=O)c4ccc(NCC5(N)CCOCC5)c([N+](=O)[O-])c4)c(Oc4ccc5[nH]ccc5c4)c3)CC2CO)=C(c2ccc(Cl)cc2)C1 (stereo not shown) [EXAMPLE 237, N-[(4-{[(4-aminotetrahydro-2H-pyran-4-yl)methyl]amino}-3-nitrophenyl)sulfonyl]-4-[4-{[2-(4-chlorophenyl)-4,4-dimethylcyclohex-1-en-1-yl]methyl}-3-(hydroxymethyl)piperazin-1-yl]-2-(1H-indol-5-yloxy)benzamide]	668.3
